Structures are written as SMILES. Read-outs that look alike come from different tables or passages of the source.

The source of these data is US8802597B2, “Herbicidal pyrimidines” (E I du Pont de Nemours and Company, priority 2003, dated 2014).

Experiment in all cases: Test A pre/postemergence
Holding throughout (format): in vivo

Experiment [1] concerns velvetleaf (Abutilon theophrasti). To be noted: for pest or weed control at 125 g/ha / pest or weed control at 500 g/ha: Abutilon theophrasti, 240 h, read-out: Plant response rating, Velvetleaf. Summed up: (§1)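 Compared with untreated controls, treated plants were visually rated for injury on a 0 (none) to 100 (complete control) scale about ten days after spraying. Pre- and postemergence applications used one solvent/surfactant formulation; postemergence plants measured 2–10 cm.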

Experiment [2] relates to redroot pigweed (Amaranthus retroflexus). To be noted: for pest or weed control at 125 g/ha / pest or weed control at 500 g/ha: Amaranthus retroflexus, 240 h, read-out: Plant response rating, Pigweed. Summed up: as §1
Experiment [3] concerns giant foxtail (Setaria faberi). To be noted: for pest or weed control at 125 g/ha / pest or weed control at 500 g/ha: Setaria faberi, 240 h, read-out: Plant response rating, Foxtail, Giant. The procedure, abridged: as §1
Experiment [4] relates to morningglory (Ipomoea spp.). Particulars: for pest or weed control at 125 g/ha / pest or weed control at 500 g/ha: Ipomoea, 240 h, read-out: Plant response rating, Morningglory. Summed up: as §1
The mark [5] stands for this setting: Postemergence, 125 g ai/ha, 0 to 100 scale (0 no effect, 100 complete control).
Setting [6] is: Postemergence, 500 g ai/ha, 0 to 100 scale (0 no effect, 100 complete control).
Where [7] appears, read: Preemergence, 125 g ai/ha, 0 to 100 scale where 0 is no effect and 100 is complete control, approximately ten days.
[8] abbreviates: Preemergence, 500 g ai/ha, 0 to 100 scale where 0 is no effect and 100 is complete control, approximately ten days.
Setting [9] is: post-emergence, Postemergence, 125 g ai/ha, 0 to 100 scale (0 no effect, 100 complete control).
Setting [10] is: post-emergence, Postemergence, 500 g ai/ha, 0 to 100 scale (0 no effect, 100 complete control).
[11] abbreviates: pre-emergence, Preemergence, 125 g ai/ha, 0 to 100 scale where 0 is no effect and 100 is complete control, approximately ten days.
Setting [12] is: pre-emergence, Preemergence, 500 g ai/ha, 0 to 100 scale where 0 is no effect and 100 is complete control, approximately ten days.

As to `COC(=O)c1nc(-c2ccc(Cl)cc2)nc(N)c1Br` [Compound 83], the “Plant response rating, Velvetleaf” value is on record as 90 in experiment [1] (setting [5]), 90 in experiment [1] (setting [6]), 15 in experiment [1] (setting [7]) and 30 in experiment [1] (setting [8]). Besides, the “Plant response rating, Pigweed” value was determined as 70 in experiment [2] (setting [5]), 85 in experiment [2] (setting [6]), 20 in experiment [2] (setting [7]) and 50 in experiment [2] (setting [8]). Moreover, the “Plant response rating, Foxtail, Giant” value amounted to 0 in experiment [3] (setting [5]), 10 in experiment [3] (setting [6]), 0 in experiment [3] (setting [7]) and 0 in experiment [3] (setting [8]). Also, the “Plant response rating, Morningglory” value worked out at 55 in experiment [4] (setting [5]), 75 in experiment [4] (setting [6]), 0 in experiment [4] (setting [7]) and 10 in experiment [4] (setting [8]).
On to `Nc1nc(-c2ccc(Br)cc2)nc(C(=O)O)c1Cl` [Compound 95, 6-amino-2-(4-bromophenyl)-5-chloro-4-pyrimidinecarboxylic acid], for which the pest or weed control at 125 g/ha was 90% in experiment [1] (setting [9]); 55% in experiment [1] (setting [11]); 85% in experiment [2] (setting [9]); 95% in experiment [2] (setting [11]); 85% in experiment [3] (setting [9]); 65% in experiment [3] (setting [11]). The pest or weed control at 125 g/ha in experiment [4] (setting [9]) was 75%; in experiment [4] (setting [11]) it was 80%. In addition, the pest or weed control at 500 g/ha was found to be 95% in experiment [1] (setting [10]); 95% in experiment [1] (setting [12]); 95% in experiment [2] (setting [10]); 100% in experiment [2] (setting [12]); 85% in experiment [3] (setting [10]); 90% in experiment [3] (setting [12]). For the same compound, the values for the pest or weed control at 500 g/ha in experiment [4] (setting [10]) and in experiment [4] (setting [12]) were 80% and 85%, respectively.
As for `Cc1ccc(-c2nc(N)c(Cl)c(C(=O)O)n2)cc1` [Compound 91], the “Plant response rating, Velvetleaf” value in experiment [1] (setting [5]) was determined as 75; in experiment [1] (setting [6]), 95; in experiment [1] (setting [7]) it was 80; in experiment [1] (setting [8]) it was 100. Also, the “Plant response rating, Pigweed” value in experiment [2] (setting [5]) was 55; in experiment [2] (setting [6]), 100; in experiment [2] (setting [7]), 100; in experiment [2] (setting [8]), 100. For the same compound, the “Plant response rating, Foxtail, Giant” value in experiment [3] (setting [5]) is given as 5; in experiment [3] (setting [6]) it was 75; in experiment [3] (setting [7]), 0; in experiment [3] (setting [8]), 25. In addition, the “Plant response rating, Morningglory” value in experiment [4] (setting [5]) is reported as 5; in experiment [4] (setting [6]), 30; in experiment [4] (setting [7]), 5; in experiment [4] (setting [8]), 50.
Consider `COC(=O)c1nc(-c2ccc(Cl)cc2)nc(N)c1Cl` [Compound 58, methyl 6-amino-5-chloro-2-(4-chlorophenyl)-4-pyrimidinecarboxylate], for which the pest or weed control at 125 g/ha amounted to 70% in experiment [1] (setting [9]); 0% in experiment [1] (setting [11]); 70% in experiment [2] (setting [9]); 0% in experiment [2] (setting [11]); 0% in experiment [3] (setting [9]); 0% in experiment [3] (setting [11]). Moreover, the results for the pest or weed control at 125 g/ha in experiment [4] (setting [9]) and in experiment [4] (setting [11]) were 55% and 10%, respectively. Moreover, the pest or weed control at 500 g/ha in experiment [1] (setting [10]) turned out to be 85%; in experiment [1] (setting [12]), 40%; in experiment [2] (setting [10]), 80%; in experiment [2] (setting [12]), 60%; in experiment [3] (setting [10]), 50%; in experiment [3] (setting [12]), 10%. The pest or weed control at 500 g/ha in experiment [4] (setting [10]) amounted to 80%; in experiment [4] (setting [12]) it was 25%.
Turning to `Nc1nc(C2CC2)nc(C(=O)[O-])c1Cl.[Na+]` [Compound 77, 6-amino-5-chloro-2-cyclopropyl-4-pyrimidinecarboxylic acid monosodium salt], the pest or weed control at 125 g/ha is 95% in experiment [1] (setting [9]); 100% in experiment [1] (setting [11]); 95% in experiment [2] (setting [9]); 85% in experiment [2] (setting [11]); 85% in experiment [3] (setting [9]); 95% in experiment [4] (setting [9]). In addition, the pest or weed control at 125 g/ha in experiment [4] (setting [11]) was 100%. In addition, the pest or weed control at 500 g/ha in experiment [1] (setting [10]) was found to be 100%; in experiment [1] (setting [12]), 100%; in experiment [2] (setting [10]), 95%; in experiment [2] (setting [12]) it was 95%; in experiment [3] (setting [10]), 90%; in experiment [3] (setting [12]), 95%. The pest or weed control at 500 g/ha in experiment [4] (setting [10]) and in experiment [4] (setting [12]) was 100% throughout. Besides, the “Plant response rating, Foxtail, Giant” value in experiment [3] (setting [7]) amounted to 75.
Regarding `COC(=O)c1nc(-c2ccc(Br)cc2)nc(N)c1Cl` [Compound 96, methyl 6-amino-2-(4-bromophenyl)-5-chloro-4-pyrimidinecarboxylate], the pest or weed control at 125 g/ha in experiment [1] (setting [9]) turned out to be 80%; in experiment [1] (setting [11]), 65%; in experiment [2] (setting [9]) it was 70%; in experiment [2] (setting [11]), 80%; in experiment [3] (setting [9]), 25%; in experiment [3] (setting [11]), 5%. For the same compound, the pest or weed control at 125 g/ha in experiment [4] (setting [9]) was 60%; in experiment [4] (setting [11]), 15%. The pest or weed control at 500 g/ha in experiment [1] (setting [10]) was found to be 85%; in experiment [1] (setting [12]) it was 80%; in experiment [2] (setting [10]), 85%; in experiment [2] (setting [12]), 80%; in experiment [3] (setting [10]), 35%; in experiment [3] (setting [12]) it was 10%. The pest or weed control at 500 g/ha was determined as 65% in experiment [4] (setting [10]) and 80% in experiment [4] (setting [12]).
As for `Nc1nc(-c2ccc(Cl)cc2)nc(C(=O)O)c1Br` [Compound 88], the “Plant response rating, Velvetleaf” value was determined as 90 in experiment [1] (setting [5]), 95 in experiment [1] (setting [6]), 10 in experiment [1] (setting [7]) and 70 in experiment [1] (setting [8]). Further, the “Plant response rating, Pigweed” value in experiment [2] (setting [5]) came out at 90; in experiment [2] (setting [6]), 95; in experiment [2] (setting [7]), 80; in experiment [2] (setting [8]), 100. Further, the “Plant response rating, Foxtail, Giant” value in experiment [3] (setting [5]) is listed as 80; in experiment [3] (setting [6]), 90; in experiment [3] (setting [7]), 10; in experiment [3] (setting [8]), 50. In addition, the “Plant response rating, Morningglory” value in experiment [4] (setting [5]) worked out at 60; in experiment [4] (setting [6]), 85; in experiment [4] (setting [7]), 10; in experiment [4] (setting [8]) it was 90.
